According to ChEMBL document CHEMBL3046559, “Sterile oat (Avena sterilis L.) cross-resistance profile to ACCase-inhibiting herbicides in Greece” (2012):

Experiments:
Assay type in all cases: functional
Avena sterilis [1] = assay: Herbicidal activity against Avena sterilis accession P15 assessed as weed survival at 1 times field recommended herbicide dose
Avena sterilis [2] = assay: Herbicidal activity against Avena sterilis accession P09 assessed as weed survival at 1 times field recommended herbicide dose
Avena sterilis [3] = assay: Herbicidal activity against Avena sterilis accession P07 assessed as weed survival at 1 times field recommended herbicide dose
Avena sterilis [4] = assay: Herbicidal activity against Avena sterilis accession P21S assessed as weed survival at 1/32 times field recommended herbicide dose
Avena sterilis [5] = assay: Herbicidal activity against Avena sterilis accession P19S assessed as weed survival at 1/32 times field recommended herbicide dose
Avena sterilis [6] = assay: Herbicidal activity against Avena sterilis accession P13S assessed as weed survival at 1/32 times field recommended herbicide dose
Avena sterilis [7] = assay: Herbicidal activity against Avena sterilis accession P10S assessed as weed survival at 1/32 times field recommended herbicide dose
Avena sterilis [8] = assay: Herbicidal activity against Avena sterilis accession P22 assessed as weed survival at 32 times field recommended herbicide dose
Avena sterilis [9] = assay: Herbicidal activity against Avena sterilis accession P05 assessed as weed survival at 1 times field recommended herbicide dose
Avena sterilis [10] = assay: Herbicidal activity against Avena sterilis accession P02 assessed as weed survival at 1 times field recommended herbicide dose
Avena sterilis [11] = assay: Herbicidal activity against Avena sterilis accession P19S assessed as induction of weed mortality
Avena sterilis [12] = assay: Herbicidal activity against Avena sterilis accession P10S assessed as induction of weed mortality
Avena sterilis [13] = assay: Herbicidal activity against Avena sterilis accession P22 assessed as induction of weed mortality
Avena sterilis [14] = assay: Herbicidal activity against Avena sterilis accession P20 assessed as induction of weed mortality
Avena sterilis [15] = assay: Herbicidal activity against Avena sterilis accession P12 assessed as induction of weed mortality
Avena sterilis [16] = assay: Herbicidal activity against Avena sterilis accession P08 assessed as induction of weed mortality
Avena sterilis [17] = assay: Herbicidal activity against Avena sterilis accession P07 assessed as induction of weed mortality
Avena sterilis [18] = assay: Herbicidal activity against Avena sterilis accession P03 assessed as induction of weed mortality
Avena sterilis [19] = assay: Herbicidal activity against Avena sterilis accession P01 assessed as induction of weed mortality
Avena sterilis [20] = assay: Herbicidal activity against Avena sterilis accession P17 assessed as weed survival at 8 times field recommended herbicide dose
Avena sterilis [21] = assay: Herbicidal activity against Avena sterilis accession P15 assessed as weed survival at 8 times field recommended herbicide dose
Avena sterilis [22] = assay: Herbicidal activity against Avena sterilis accession P12 assessed as weed survival at 8 times field recommended herbicide dose
Avena sterilis [23] = assay: Herbicidal activity against Avena sterilis accession P16 assessed as weed survival at 32 times field recommended herbicide dose
Avena sterilis [24] = assay: Herbicidal activity against Avena sterilis accession P14 assessed as weed survival at 32 times field recommended herbicide dose
Avena sterilis [25] = assay: Herbicidal activity against Avena sterilis accession P12 assessed as weed survival at 32 times field recommended herbicide dose
Avena sterilis [26] = assay: Herbicidal activity against Avena sterilis accession P09 assessed as weed survival at 32 times field recommended herbicide dose
Avena sterilis [27] = assay: Herbicidal activity against Avena sterilis accession P08 assessed as weed survival at 32 times field recommended herbicide dose
Avena sterilis [28] = assay: Herbicidal activity against Avena sterilis accession P02 assessed as weed survival at 32 times field recommended herbicide dose
Avena sterilis [29] = assay: Herbicidal activity against Avena sterilis accession P22 assessed as weed survival at 16 times field recommended herbicide dose
Avena sterilis [30] = assay: Herbicidal activity against Avena sterilis accession P15 assessed as weed survival at 16 times field recommended herbicide dose
Avena sterilis [31] = assay: Herbicidal activity against Avena sterilis accession P14 assessed as weed survival at 16 times field recommended herbicide dose
Avena sterilis [32] = assay: Herbicidal activity against Avena sterilis accession P12 assessed as weed survival at 16 times field recommended herbicide dose
Avena sterilis [33] = assay: Herbicidal activity against Avena sterilis accession P09 assessed as weed survival at 16 times field recommended herbicide dose
Avena sterilis [34] = assay: Herbicidal activity against Avena sterilis accession P07 assessed as weed survival at 16 times field recommended herbicide dose
Avena sterilis [35] = assay: Herbicidal activity against Avena sterilis accession P05 assessed as weed survival at 16 times field recommended herbicide dose
Avena sterilis [36] = assay: Herbicidal activity against Avena sterilis accession P04 assessed as weed survival at 16 times field recommended herbicide dose
Avena sterilis [37] = assay: Herbicidal activity against Avena sterilis accession P01 assessed as weed survival at 16 times field recommended herbicide dose
Avena sterilis [38] = assay: Herbicidal activity against Avena sterilis accession P13S assessed as weed survival at 1/8 times field recommended herbicide dose
Avena sterilis [39] = assay: Herbicidal activity against Avena sterilis accession P10S assessed as weed survival at 1/8 times field recommended herbicide dose
Avena sterilis [40] = assay: Herbicidal activity against Avena sterilis accession P06S assessed as weed survival at 1/8 times field recommended herbicide dose
Avena sterilis [41] = assay: Herbicidal activity against Avena sterilis accession P18 assessed as weed survival at 8 times field recommended herbicide dose
Avena sterilis [42] = assay: Herbicidal activity against Avena sterilis accession P11 assessed as weed survival at 8 times field recommended herbicide dose
Avena sterilis [43] = assay: Herbicidal activity against Avena sterilis accession P08 assessed as weed survival at 8 times field recommended herbicide dose
Avena sterilis [44] = assay: Herbicidal activity against Avena sterilis accession P22 assessed as weed survival at 4 times field recommended herbicide dose
Avena sterilis [45] = assay: Herbicidal activity against Avena sterilis accession P17 assessed as weed survival at 4 times field recommended herbicide dose
Avena sterilis [46] = assay: Herbicidal activity against Avena sterilis accession P15 assessed as weed survival at 4 times field recommended herbicide dose
Avena sterilis [47] = assay: Herbicidal activity against Avena sterilis accession P14 assessed as weed survival at 4 times field recommended herbicide dose
Avena sterilis [48] = assay: Herbicidal activity against Avena sterilis accession P11 assessed as weed survival at 4 times field recommended herbicide dose
Avena sterilis [49] = assay: Herbicidal activity against Avena sterilis accession P09 assessed as weed survival at 4 times field recommended herbicide dose
Avena sterilis [50] = assay: Herbicidal activity against Avena sterilis accession P05 assessed as weed survival at 4 times field recommended herbicide dose
Avena sterilis [51] = assay: Herbicidal activity against Avena sterilis accession P06S assessed as weed survival at 1 times field recommended herbicide dose
Avena sterilis [52] = assay: Herbicidal activity against Avena sterilis accession P20 assessed as weed survival at 1 times field recommended herbicide dose
Avena sterilis [53] = assay: Herbicidal activity against Avena sterilis accession P03 assessed as weed survival at 4 times field recommended herbicide dose
Avena sterilis [54] = assay: Herbicidal activity against Avena sterilis accession P02 assessed as weed survival at 4 times field recommended herbicide dose
Avena sterilis [55] = assay: Herbicidal activity against Avena sterilis accession P01 assessed as weed survival at 4 times field recommended herbicide dose
Avena sterilis [56] = assay: Herbicidal activity against Avena sterilis accession P21S assessed as weed survival at 1 times field recommended herbicide dose
Avena sterilis [57] = assay: Herbicidal activity against Avena sterilis accession P13S assessed as weed survival at 1 times field recommended herbicide dose
Avena sterilis [58] = assay: Herbicidal activity against Avena sterilis accession P22 assessed as weed survival at 1 times field recommended herbicide dose

CCOC(=O)[C@@H](C)Oc1ccc(Oc2nc3ccc(Cl)cc3o2)cc1 [FENOXAPROP-P-ETHYL] gave a Survival (Avena sterilis [1]) of 100%, a Survival (Avena sterilis [2]) of 80% and a Survival (Avena sterilis [3]) of 97%. It also gave a Survival (Avena sterilis [4]) of 97%, a Survival (Avena sterilis [5]) of 93% and a Survival (Avena sterilis [6]) of 90%. The Survival (Avena sterilis [7]) was 100%, the Survival (Avena sterilis [8]) was 0% and the Survival (Avena sterilis [9]) was 77%. It also gave a Survival (Avena sterilis [10]) of 100%, a GR50 (Avena sterilis [11]) of 31 gAi/ha and a GR50 (Avena sterilis [12]) of 16 gAi/ha. For the same compound, the GR50 (Avena sterilis [13]) was 250 gAi/ha, the GR50 (Avena sterilis [14]) was >2640 gAi/ha and the GR50 (Avena sterilis [15]) was 1290 gAi/ha. The GR50 (Avena sterilis [16]) was 854 gAi/ha, the GR50 (Avena sterilis [17]) was >2640 gAi/ha and the GR50 (Avena sterilis [18]) was 860 gAi/ha. It also gave a GR50 (Avena sterilis [19]) of 600 gAi/ha, a Survival (Avena sterilis [20]) of 20% and a Survival (Avena sterilis [21]) of 70%. The Survival (Avena sterilis [22]) was 53%, the Survival (Avena sterilis [23]) was 0% and the Survival (Avena sterilis [24]) was 0%. For the same compound, the Survival (Avena sterilis [25]) was 40%, the Survival (Avena sterilis [26]) was 40% and the Survival (Avena sterilis [27]) was 20%. The Survival (Avena sterilis [28]) was 40%, the Survival (Avena sterilis [29]) was 0% and the Survival (Avena sterilis [30]) was 60%. The Survival (Avena sterilis [31]) was 20%, the Survival (Avena sterilis [32]) was 50% and the Survival (Avena sterilis [33]) was 60%. The Survival (Avena sterilis [34]) was 80%, the Survival (Avena sterilis [35]) was 20% and the Survival (Avena sterilis [36]) was 37%. It also gave a Survival (Avena sterilis [37]) of 23%, a Survival (Avena sterilis [38]) of 80% and a Survival (Avena sterilis [39]) of 80%. For the same compound, the Survival (Avena sterilis [40]) was 80%, the Survival (Avena sterilis [41]) was 90% and the Survival (Avena sterilis [42]) was 77%. The Survival (Avena sterilis [43]) was 63%, the Survival (Avena sterilis [44]) was 40% and the Survival (Avena sterilis [45]) was 40%. For the same compound, the Survival (Avena sterilis [46]) was 100%, the Survival (Avena sterilis [47]) was 43% and the Survival (Avena sterilis [48]) was 83%. For the same compound, the Survival (Avena sterilis [49]) was 80%, the Survival (Avena sterilis [50]) was 25% and the Survival (Avena sterilis [51]) was 0%. The Survival (Avena sterilis [52]) was 97%, the Survival (Avena sterilis [53]) was 50% and the Survival (Avena sterilis [54]) was 100%. It also gave a Survival (Avena sterilis [55]) of 73%, a Survival (Avena sterilis [56]) of 0% and a Survival (Avena sterilis [57]) of 0%. It also gave a Survival (Avena sterilis [58]) of 87%.
COCc1cnc(C2=NC(C)(C(C)C)C(=O)N2)c(C(=O)O)c1 (stereo unspecified) [IMAZAMOX] gave a Survival (Avena sterilis [1]) of 0%, a Survival (Avena sterilis [2]) of 0% and a Survival (Avena sterilis [3]) of 0%. It also gave a Survival (Avena sterilis [4]) of 100%, a Survival (Avena sterilis [5]) of 100% and a Survival (Avena sterilis [6]) of 100%. The Survival (Avena sterilis [7]) was 100%, the Survival (Avena sterilis [8]) was 0% and the Survival (Avena sterilis [9]) was 0%. It also gave a Survival (Avena sterilis [10]) of 3%, a GR50 (Avena sterilis [11]) of 14 gAi/ha and a GR50 (Avena sterilis [12]) of 7 gAi/ha. For the same compound, the GR50 (Avena sterilis [13]) was <50 gAi/ha, the GR50 (Avena sterilis [14]) was <50 gAi/ha and the GR50 (Avena sterilis [15]) was <50 gAi/ha. The GR50 (Avena sterilis [16]) was <50 gAi/ha, the GR50 (Avena sterilis [17]) was <50 gAi/ha and the GR50 (Avena sterilis [18]) was <50 gAi/ha. For the same compound, the GR50 (Avena sterilis [19]) was <50 gAi/ha, the Survival (Avena sterilis [20]) was 0% and the Survival (Avena sterilis [21]) was 0%. It also gave a Survival (Avena sterilis [22]) of 0%, a Survival (Avena sterilis [23]) of 0% and a Survival (Avena sterilis [24]) of 0%. For the same compound, the Survival (Avena sterilis [25]) was 0%, the Survival (Avena sterilis [26]) was 0% and the Survival (Avena sterilis [27]) was 0%. It also gave a Survival (Avena sterilis [28]) of 0%, a Survival (Avena sterilis [29]) of 0% and a Survival (Avena sterilis [30]) of 0%. It also gave a Survival (Avena sterilis [31]) of 0%, a Survival (Avena sterilis [32]) of 0% and a Survival (Avena sterilis [33]) of 0%. It also gave a Survival (Avena sterilis [34]) of 0%, a Survival (Avena sterilis [35]) of 0% and a Survival (Avena sterilis [36]) of 0%. For the same compound, the Survival (Avena sterilis [37]) was 0%, the Survival (Avena sterilis [38]) was 50% and the Survival (Avena sterilis [39]) was 60%. The Survival (Avena sterilis [40]) was 57%, the Survival (Avena sterilis [41]) was 0% and the Survival (Avena sterilis [42]) was 0%. The Survival (Avena sterilis [43]) was 0%, the Survival (Avena sterilis [44]) was 0% and the Survival (Avena sterilis [45]) was 0%. For the same compound, the Survival (Avena sterilis [46]) was 0%, the Survival (Avena sterilis [47]) was 0% and the Survival (Avena sterilis [48]) was 0%. It also gave a Survival (Avena sterilis [49]) of 0%, a Survival (Avena sterilis [50]) of 0% and a Survival (Avena sterilis [51]) of 0%. For the same compound, the Survival (Avena sterilis [52]) was 0%, the Survival (Avena sterilis [53]) was 0% and the Survival (Avena sterilis [54]) was 0%. For the same compound, the Survival (Avena sterilis [55]) was 0%, the Survival (Avena sterilis [56]) was 0% and the Survival (Avena sterilis [57]) was 0%. For the same compound, the Survival (Avena sterilis [58]) was 0%.
